{
  "source": "patent US20070190094A1",
  "about": "“PESTICIDAL COMPOSITIONS CONTAINING ISOPROPYL-CONTAINING COMPOUNDS AS PESTICIDALLY ACTIVE INGREDIENTS” (ECOSMART TECHNOLOGIES, INC., priority 2006, published 2007)",
  "origin": "cited, not measured here",
  "key": {"[1]": {"conditions": "U.S. Environmental Protection Agency classification"}, "[2]": {"conditions": "chronic toxicity studies; increased liver weights even at the lowest doses"}, "[3]": {"conditions": "animal studies; treatments as low as"}, "[4]": {"system": "hepatic microsomal oxidase enzymes", "conditions": "in vivo"}},
  "data": [
    {"smiles": "CCCCOCCOCCOCc1cc2c(cc1CCC)OCO2", "note": "[PBO, piperonyl butoxide]", "values": [
      {"measurement": "EPA carcinogen class", "setting": "[1]", "value": "class C possible human carcinogen"},
      {"measurement": "lowest dose at which increased liver weights were shown", "setting": "[2]", "value": 30, "unit": "mg/kg/day"},
      {"measurement": "treatment level at which hepatocellular carcinomas were shown", "setting": "[3]", "value": 1.2, "unit": "%"},
      {"measurement": "effect on hepatic microsomal oxidase enzymes", "setting": "[4]", "value": "inhibit hepatic microsomal oxidase enzymes"}
    ]}
  ]
}
